Legend:
[1] = target: T1, cytochrome bo3 (heme-copper bo3 oxidase) (Escherichia coli, UniProt P0ABI8); experiment: O2 consumption, high-resolution respirometry (Oxygraph-2k); Hill fit with n = […]; type: biochemical
T1 construct: gene cyoB; dodecyl maltoside micelles; with Cytochrome bo(3) ubiquinol oxidase subunit 2; Cytochrome bo(3) ubiquinol oxidase subunit 3; Cytochrome bo(3) ubiquinol oxidase subunit 4

[2] = target: O-acetylserine sulfhydrylase from Entamoeba histolytica (Entamoeba histolytica); experiment: SEC; 120-ml Superdex S-200 column, buffer A (50 mM potassium phosphate, 300 mM KCl, pH 7.5, 10% glycerol), 0.7 mL/min

T1 sequence (P0ABJ3 whole entry): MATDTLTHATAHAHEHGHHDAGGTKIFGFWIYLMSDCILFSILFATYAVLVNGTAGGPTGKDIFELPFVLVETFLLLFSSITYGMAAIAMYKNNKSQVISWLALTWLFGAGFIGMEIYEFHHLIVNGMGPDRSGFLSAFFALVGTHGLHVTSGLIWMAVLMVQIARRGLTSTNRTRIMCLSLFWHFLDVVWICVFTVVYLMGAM
T1 sequence (P0ABI8 whole entry): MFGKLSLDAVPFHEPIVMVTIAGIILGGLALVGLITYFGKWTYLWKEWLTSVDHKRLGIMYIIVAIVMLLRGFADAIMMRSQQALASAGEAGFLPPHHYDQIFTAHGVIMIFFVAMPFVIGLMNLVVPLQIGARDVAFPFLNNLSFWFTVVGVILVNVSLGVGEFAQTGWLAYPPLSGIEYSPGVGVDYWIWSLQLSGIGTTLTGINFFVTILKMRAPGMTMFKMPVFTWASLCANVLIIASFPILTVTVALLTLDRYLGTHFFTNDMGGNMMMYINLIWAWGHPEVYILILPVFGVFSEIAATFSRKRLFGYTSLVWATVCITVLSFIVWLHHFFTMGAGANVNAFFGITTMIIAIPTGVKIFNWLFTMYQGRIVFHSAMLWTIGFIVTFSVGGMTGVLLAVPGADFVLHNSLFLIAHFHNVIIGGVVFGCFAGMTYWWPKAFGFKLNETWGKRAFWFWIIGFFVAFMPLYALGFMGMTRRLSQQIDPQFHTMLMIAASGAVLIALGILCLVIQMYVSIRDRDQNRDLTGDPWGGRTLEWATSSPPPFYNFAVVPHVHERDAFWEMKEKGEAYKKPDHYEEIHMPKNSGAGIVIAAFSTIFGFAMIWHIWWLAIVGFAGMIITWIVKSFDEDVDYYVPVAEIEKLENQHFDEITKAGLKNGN
T1 sequence (P0ABJ1 25-315, further chain): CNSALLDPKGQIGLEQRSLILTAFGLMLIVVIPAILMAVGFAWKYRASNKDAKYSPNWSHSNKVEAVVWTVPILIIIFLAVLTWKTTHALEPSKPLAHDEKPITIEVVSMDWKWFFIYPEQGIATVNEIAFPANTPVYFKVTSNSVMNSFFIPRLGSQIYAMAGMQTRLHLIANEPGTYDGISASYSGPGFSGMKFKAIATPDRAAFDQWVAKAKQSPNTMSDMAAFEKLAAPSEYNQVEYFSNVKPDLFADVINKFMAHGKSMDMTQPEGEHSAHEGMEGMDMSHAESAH
T1 sequence (P0ABJ6 whole entry, further chain): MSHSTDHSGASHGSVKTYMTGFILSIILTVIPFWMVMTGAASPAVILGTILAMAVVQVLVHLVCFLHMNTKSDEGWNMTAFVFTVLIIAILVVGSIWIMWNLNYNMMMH

Row | stoichiometry N [2] | Compound | IC50 [1] [nM]
1 | – | S [NaHS] | 1100 ± 100
2 | 2 | O-acetylserine sulfhydrylase from Entamoeba histolytica (enzyme) | –

Source: article PMC4815019, “The Terminal Oxidase Cytochrome bd Promotes Sulfide-resistant Bacterial Respiration and Growth” (Scientific Reports, 2016)
